Data on 6 compounds can be found in ChEMBL document CHEMBL1155256, “A new small molecule that directly inhibits the DNA binding of NF-kappaB” (Bioorg Med Chem, 2009).

A value given as a limit tells only on which side of the number the result lay.

This assay addresses T1, Nuclear factor NF-kappa-B p105 subunit (Homo sapiens, UniProt P19838).
T1 sequence (P19838 whole entry): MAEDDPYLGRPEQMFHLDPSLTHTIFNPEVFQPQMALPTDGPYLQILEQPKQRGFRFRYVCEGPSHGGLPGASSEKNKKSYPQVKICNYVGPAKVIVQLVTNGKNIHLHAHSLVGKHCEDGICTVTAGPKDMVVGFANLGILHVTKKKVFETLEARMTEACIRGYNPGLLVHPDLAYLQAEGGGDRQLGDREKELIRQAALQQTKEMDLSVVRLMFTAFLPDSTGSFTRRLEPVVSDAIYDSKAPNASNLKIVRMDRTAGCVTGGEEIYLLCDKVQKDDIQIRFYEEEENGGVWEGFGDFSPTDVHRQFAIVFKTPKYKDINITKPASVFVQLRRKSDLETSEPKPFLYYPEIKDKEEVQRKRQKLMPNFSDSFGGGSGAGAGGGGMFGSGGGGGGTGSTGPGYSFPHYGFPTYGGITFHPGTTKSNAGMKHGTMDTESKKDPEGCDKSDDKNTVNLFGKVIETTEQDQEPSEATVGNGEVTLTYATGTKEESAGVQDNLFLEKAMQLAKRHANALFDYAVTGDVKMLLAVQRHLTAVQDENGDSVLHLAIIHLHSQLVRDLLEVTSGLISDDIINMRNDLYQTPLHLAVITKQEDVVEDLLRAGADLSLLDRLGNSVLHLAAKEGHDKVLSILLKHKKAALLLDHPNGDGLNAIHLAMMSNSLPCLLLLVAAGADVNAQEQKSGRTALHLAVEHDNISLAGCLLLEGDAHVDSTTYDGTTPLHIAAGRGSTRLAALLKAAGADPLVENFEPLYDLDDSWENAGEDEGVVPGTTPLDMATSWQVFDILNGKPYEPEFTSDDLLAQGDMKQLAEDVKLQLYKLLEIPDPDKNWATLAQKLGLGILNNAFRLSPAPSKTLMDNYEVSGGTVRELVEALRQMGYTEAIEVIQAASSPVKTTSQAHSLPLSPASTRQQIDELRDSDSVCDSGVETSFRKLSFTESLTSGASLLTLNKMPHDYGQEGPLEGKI
As to the kind of experiment: Inhibition of GST-fused human NF-kappaB p50 subunit DNA binding activity assessed as shortened diffusion time by fluorescence correlation spectroscopy.
As to `Clc1nc(Cl)nc(Nc2ccccc2)n1`, the IC50 (in general, the concentration needed to halve the response being measured) was 28.6 µM.

On to `O=[N+]([O-])c1cccc(Nc2nc(Cl)nc(Cl)n2)c1`, for which the IC50 worked out at 119 µM.

Take `Clc1ccc(Nc2nc(Cl)nc(Cl)n2)cc1`: the IC50 was 110 µM.

Consider `O=[N+]([O-])c1ccc(Nc2nc(Cl)nc(Cl)n2)cc1`, for which the IC50 was greater than 300 µM.

Regarding `Cc1cccc(Nc2nc(Cl)nc(Cl)n2)c1`, the IC50 was determined as 19 µM.

For `CC(C)c1ccc(Nc2nc(Cl)nc(Cl)n2)cc1`, the IC50 was 74.4 µM.
